ChEMBL document CHEMBL1159106, “Identification of potential and selective collagenase, gelatinase inhibitors from Crataegus pinnatifida” (Bioorg Med Chem Lett, 2010)

Legend:
[1] = molecular target: 72 kDa type IV collagenase (Homo sapiens, UniProt P08253); experiment: Inhibition of human rheumatoid synovial fibroblasts gelatinase A after 30 mins by fluorescence plate reader
[2] = Inhibition of collagenase type 4 after 30 mins by fluorescence plate reader
[3] = molecular target: Matrix metalloproteinase-9 (Homo sapiens, UniProt P14780); experiment: Inhibition of human neutrophils gelatinase B after 30 mins by fluorescence plate reader
Chain of Matrix metalloproteinase-9 (P14780 whole entry): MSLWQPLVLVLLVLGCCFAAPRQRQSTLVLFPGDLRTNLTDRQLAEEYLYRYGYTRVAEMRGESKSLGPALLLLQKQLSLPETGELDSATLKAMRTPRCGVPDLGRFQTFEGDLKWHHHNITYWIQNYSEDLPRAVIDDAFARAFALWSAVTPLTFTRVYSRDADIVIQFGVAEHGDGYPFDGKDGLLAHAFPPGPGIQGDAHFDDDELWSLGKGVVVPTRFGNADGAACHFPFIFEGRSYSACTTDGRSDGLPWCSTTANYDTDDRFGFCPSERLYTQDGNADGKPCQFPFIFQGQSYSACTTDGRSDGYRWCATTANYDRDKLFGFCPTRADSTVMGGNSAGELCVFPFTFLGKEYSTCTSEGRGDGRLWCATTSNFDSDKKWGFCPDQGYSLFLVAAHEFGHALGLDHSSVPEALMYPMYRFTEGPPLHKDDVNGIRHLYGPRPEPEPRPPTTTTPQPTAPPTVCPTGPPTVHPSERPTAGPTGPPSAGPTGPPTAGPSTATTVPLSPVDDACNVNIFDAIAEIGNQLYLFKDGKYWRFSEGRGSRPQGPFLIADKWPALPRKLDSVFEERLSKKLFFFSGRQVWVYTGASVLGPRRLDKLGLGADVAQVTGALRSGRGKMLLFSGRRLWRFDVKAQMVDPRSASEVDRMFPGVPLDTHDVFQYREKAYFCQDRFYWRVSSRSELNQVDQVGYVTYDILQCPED

Chain of 72 kDa type IV collagenase (P08253 whole entry): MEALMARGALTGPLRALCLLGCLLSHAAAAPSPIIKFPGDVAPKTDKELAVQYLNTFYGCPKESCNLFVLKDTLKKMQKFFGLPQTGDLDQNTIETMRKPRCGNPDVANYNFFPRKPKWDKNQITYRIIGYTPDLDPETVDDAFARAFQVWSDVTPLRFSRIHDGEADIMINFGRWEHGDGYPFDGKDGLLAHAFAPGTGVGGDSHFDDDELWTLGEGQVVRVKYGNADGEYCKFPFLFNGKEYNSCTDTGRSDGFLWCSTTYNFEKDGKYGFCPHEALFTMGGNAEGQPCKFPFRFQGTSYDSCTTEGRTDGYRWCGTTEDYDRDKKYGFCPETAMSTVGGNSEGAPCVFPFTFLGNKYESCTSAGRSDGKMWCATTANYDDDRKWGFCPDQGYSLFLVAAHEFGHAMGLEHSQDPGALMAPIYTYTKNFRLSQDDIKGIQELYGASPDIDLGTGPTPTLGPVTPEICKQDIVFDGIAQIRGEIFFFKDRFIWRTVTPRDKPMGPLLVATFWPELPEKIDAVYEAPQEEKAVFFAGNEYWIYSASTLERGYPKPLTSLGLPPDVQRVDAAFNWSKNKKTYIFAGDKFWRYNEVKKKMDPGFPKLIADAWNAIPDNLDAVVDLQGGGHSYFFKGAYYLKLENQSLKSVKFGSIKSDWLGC

Row | SMILES | IC50 [1] [µM] | IC50 [2] [µM] | IC50 [3] [µM]
1 | Oc1cc(O)c2c(c1)O[C@H](c1ccc(O)c(O)c1)[C@H](O)[C@H]2c1c(O)cc(O)c2c1O[C@H](c1ccc(O)c(O)c1)[C@H](O)[C@H]2c1c(O)cc(O)c2c1O[C@H](c1ccc(O)c(O)c1)[C@H](O)[C@H]2c1c(O)cc(O)c2c1O[C@H](c1ccc(O)c(O)c1)[C@H](O)[C@H]2c1c(O)cc(O)c2c1O[C@H](c1ccc(O)c(O)c1)[C@H](O)C2 | 43.2 | 21.4 | 39.2
2 | [H]/N=C(\N/C(=N/[H])NCCCCCCNC(=N)NC(=N)Nc1ccc(Cl)cc1)Nc1ccc(Cl)cc1 [CHLORHEXIDINE] | 7.63 | – | 7.63
3 | CC(C)C[C@H](NP(=O)(O)O[C@@H]1O[C@@H](C)[C@H](O)[C@@H](O)[C@H]1O)C(=O)N[C@@H](Cc1c[nH]c2ccccc12)C(=O)O [PHOSPHORAMIDON] | – | 7.63 | –

The next lines start with the values.

Row | IC50 [1] [µM] | IC50 [2] [µM] | IC50 [3] [µM] | SMILES
4 | 0.4 | 0.34 | 2.3 | Oc1cc(O)c2c(c1)O[C@H](c1ccc(O)c(O)c1)[C@H](O)[C@H]2c1c(O)cc2c(c1O)C(c1c(O)cc(O)c3c1O[C@H](c1ccc(O)c(O)c1)[C@H](O)C3)[C@@H](O)[C@@H](c1ccc(O)c(O)c1)O2 (stereo not given in full)
5 | 12.4 | 0.98 | 27.3 | Oc1cc(O)c2c(c1)O[C@H](c1ccc(O)c(O)c1)[C@H](O)[C@H]2c1c(O)cc(O)c2c1O[C@H](c1ccc(O)c(O)c1)[C@H](O)[C@H]2c1c(O)cc2c(c1O)C[C@@H](O)[C@@H](c1ccc(O)c(O)c1)O2
6 | 31.4 | 11.3 | 53.2 | Oc1cc(O)c2c(c1)O[C@H](c1ccc(O)c(O)c1)[C@H](O)[C@H]2c1c(O)cc(O)c2c1O[C@H](c1ccc(O)c(O)c1)[C@H](O)[C@H]2c1c(O)cc(O)c2c1O[C@H](c1ccc(O)c(O)c1)[C@H](O)C2 [PROCYANIDIN C1]
